Data as given in patent publication US20220387433A1, “TYPE V PHOSPHODIESTERASE INHIBITOR COMPOSITIONS, METHODS OF MAKING THEM AND METHODS OF USING THEM IN PREVENTING OR TREATING ELEVATED PULMONARY VASCULAR PRESSURE OR PULMONARY HEMORRHAGES” (American Regent, Inc., priority 2019, published 2022).

System: horses
Assay: Target Animal Safety (TAS) study / toxicity of formulations in horses
Type: in vivo
Conditions: in vivo
Excerpt: The drug product vehicle contains about 35-45 wt % alcohol, 46 wt % propylene glycol and 10 wt % WFI. […] Test doses (in horses) with the vehicle confirmed that the dose toxicity was due to the vehicle. More specifically, propylene glycol was believed to be the cause of toxicity.

SMILES: CNC[C@H](O)[C@@H](O)[C@H](O)[C@H](O)CO [meglumine, 1-Deoxy-1-methylaminosorbitol]
- Toxicity to horses: non-toxic
